{"source": "patent US10385019B2", "about": "“Inhibitors of EGFR and methods of use thereof” (Dana-Farber Cancer Institute, Inc., priority 2015, dated 2019)", "data": [{"molecular_target": "EGFR T790M/L858R Ba/F3 cell line (Homo sapiens, UniProt P00533, T790M/L858R, cells depend on it)", "sequence (P00533 whole entry T790M/L858R)": "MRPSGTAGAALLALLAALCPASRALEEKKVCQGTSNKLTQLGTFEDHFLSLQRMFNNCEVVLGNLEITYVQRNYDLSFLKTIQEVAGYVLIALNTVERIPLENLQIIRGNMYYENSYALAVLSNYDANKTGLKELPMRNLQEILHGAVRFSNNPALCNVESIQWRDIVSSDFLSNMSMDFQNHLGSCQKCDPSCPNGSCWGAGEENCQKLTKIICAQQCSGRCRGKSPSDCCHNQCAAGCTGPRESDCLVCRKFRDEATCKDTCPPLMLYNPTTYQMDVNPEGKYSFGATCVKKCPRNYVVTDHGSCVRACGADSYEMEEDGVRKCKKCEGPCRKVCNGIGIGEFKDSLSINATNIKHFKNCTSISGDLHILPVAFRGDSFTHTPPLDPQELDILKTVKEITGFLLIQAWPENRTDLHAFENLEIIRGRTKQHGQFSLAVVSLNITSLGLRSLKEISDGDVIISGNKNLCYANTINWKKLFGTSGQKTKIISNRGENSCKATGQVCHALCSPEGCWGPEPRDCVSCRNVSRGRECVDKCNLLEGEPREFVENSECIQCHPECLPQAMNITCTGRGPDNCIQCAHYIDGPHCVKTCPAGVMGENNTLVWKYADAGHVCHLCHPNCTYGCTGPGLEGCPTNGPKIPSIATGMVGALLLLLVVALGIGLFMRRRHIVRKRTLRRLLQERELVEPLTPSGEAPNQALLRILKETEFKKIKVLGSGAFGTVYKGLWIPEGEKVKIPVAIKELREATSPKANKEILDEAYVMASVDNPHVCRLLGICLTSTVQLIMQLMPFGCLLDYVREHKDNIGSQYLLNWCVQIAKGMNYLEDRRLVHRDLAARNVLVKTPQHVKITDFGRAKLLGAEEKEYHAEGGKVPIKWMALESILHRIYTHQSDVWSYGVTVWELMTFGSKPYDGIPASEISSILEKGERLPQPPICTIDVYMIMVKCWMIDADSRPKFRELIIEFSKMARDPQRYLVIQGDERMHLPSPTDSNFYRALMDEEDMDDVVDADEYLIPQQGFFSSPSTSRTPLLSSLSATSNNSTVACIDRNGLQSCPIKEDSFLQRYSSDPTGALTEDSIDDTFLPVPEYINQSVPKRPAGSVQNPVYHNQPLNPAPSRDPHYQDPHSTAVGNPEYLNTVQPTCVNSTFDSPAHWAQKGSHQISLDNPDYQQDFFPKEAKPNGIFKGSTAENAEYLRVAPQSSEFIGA", "experiment": "Ba/F3 cell proliferation model", "assay_type": "cell-based, murine", "settings": "combined with cetuximab (% cetuximab, 1.0 μM drug concentration with 1.0 μg/mL cetuximab)", "method_in_brief": "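Murine Ba/F3 cells made IL-3-independent by retroviral EGFR L858R/T790M, selected in puromycin (2 μg/ml) and kept in RPMI 1640 with 10% FBS. Cells were exposed to serially diluted compound for 72 h, with growth read by MTS assay in six wells per point and ≥3 repeats. Sigmoidal dose-response non-linear regression gave the values.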", "values": [{"smiles": "O=C(Nc1nccs1)[C@@H](c1ccccc1)N1Cc2ccc(-c3ccc(OC(F)(F)F)cc3)cc2C1=O", "note": "[Compound I-74, (R)-2-(1-oxo-6-(4-(trifluoromethoxy)phenyl)isoindolin-2-yl)-2-phenyl-N-(thiazol-2-yl)acetamide]", "Activity (% inhibition)": "B (a % inhibition of between about 50% to about 75%)"}, {"smiles": "O=C(Nc1nccs1)[C@@H](c1ccccc1)N1Cc2ccc(-c3cccc(F)c3)cc2C1=O", "note": "[Compound I-76, (R)-2-(6-(3-fluorophenyl)-1-oxoisoindolin-2-yl)-2-phenyl-N-(thiazol-2-yl)acetamide]", "Activity (% inhibition)": "B (a % inhibition of between about 50% to about 75%)"}, {"smiles": "O=C(Nc1nccs1)[C@@H](c1ccccc1)N1Cc2ccc(-c3ccc(F)cc3)cc2C1=O", "note": "[Compound I-77, (R)-2-(6-(4-fluorophenyl)-1-oxoisoindolin-2-yl)-2-phenyl-N-(thiazol-2-yl)acetamide]", "Activity (% inhibition)": "B (a % inhibition of between about 50% to about 75%)"}, {"smiles": "O=C(O)c1ccc(-c2ccc3c(c2)C(=O)N([C@@H](C(=O)Nc2nccs2)c2ccccc2)C3)cc1", "note": "[Compound I-78, (R)-4-(3-oxo-2-(2-oxo-1-phenyl-2-(thiazol-2-ylamino)ethyl)isoindolin-5-yl)benzoic acid]", "Activity (% inhibition)": "A (a % inhibition of about 75%)"}, {"smiles": "COc1ccc(-c2ccc3c(c2)C(=O)N([C@@H](C(=O)Nc2nccs2)c2ccccc2)C3)c(OC)c1", "note": "[Compound I-80, (R)-2-(6-(2,4-dimethoxyphenyl)-1-oxoisoindolin-2-yl)-2-phenyl-N-(thiazol-2-yl)acetamide]", "Activity (% inhibition)": "C (a % inhibition of between about 25% to about 50%)"}, {"smiles": "CN(C)CCCCNC(=O)c1ccc(-c2ccc3c(c2)C(=O)N([C@@H](C(=O)Nc2nccs2)c2ccccc2)C3)cc1", "note": "[Compound I-82, (R)-N-(4-(dimethylamino)butyl)-4-(3-oxo-2-(2-oxo-1-phenyl-2-(thiazol-2-ylamino)ethyl)isoindolin-5-yl)benzamide]", "Activity (% inhibition)": "C (a % inhibition of between about 25% to about 50%)"}, {"smiles": "O=C(NCCN1CCOCC1)c1ccc(-c2ccc3c(c2)C(=O)N([C@@H](C(=O)Nc2nccs2)c2ccccc2)C3)cc1", "note": "[Compound I-83, (R)-N-(2-morpholinoethyl)-4-(3-oxo-2-(2-oxo-1-phenyl-2-(thiazol-2-ylamino)ethyl)isoindolin-5-yl)benzamide]", "Activity (% inhibition)": "D (a % inhibition of between about 0% to about 25%)"}, {"smiles": "O=C(NCCCN1CCOCC1)c1ccc(-c2ccc3c(c2)C(=O)N([C@@H](C(=O)Nc2nccs2)c2ccccc2)C3)cc1", "note": "[Compound I-84, (R)-N-(3-morpholinopropyl)-4-(3-oxo-2-(2-oxo-1-phenyl-2-(thiazol-2-ylamino)ethyl)isoindolin-5-yl)benzamide]", "Activity (% inhibition)": "D (a % inhibition of between about 0% to about 25%)"}, {"smiles": "O=C(Nc1nccs1)[C@@H](c1ccccc1)N1Cc2ccc(-c3ccc(C(=O)N4CCOCC4)cc3)cc2C1=O", "note": "[Compound I-85, (R)-2-(6-(4-(morpholine-4-carbonyl)phenyl)-1-oxoisoindolin-2-yl)-2-phenyl-N-(thiazol-2-yl)acetamide]", "Activity (% inhibition)": "D (a % inhibition of between about 0% to about 25%)"}, {"smiles": "O=C(Nc1nccs1)[C@@H](c1ccccc1)N1Cc2ccc(C3=CCCCC3)cc2C1=O", "note": "[Compound I-86, (R)-2-(6-(cyclohex-1-en-1-yl)-1-oxoisoindolin-2-yl)-2-phenyl-N-(thiazol-2-yl)acetamide]", "Activity (% inhibition)": "B (a % inhibition of between about 50% to about 75%)"}, {"smiles": "O=C(NCc1ccccc1)[C@@H](c1ccccc1)N1Cc2ccccc2C1=O", "note": "[Compound I-87, (R)-N-benzyl-2-(1-oxoisoindolin-2-yl)-2-phenylacetamide]", "Activity (% inhibition)": "A (a % inhibition of about 75%)"}, {"smiles": "CN(C)CCNC(=O)c1cccc(-c2ccc3c(c2)C(=O)N([C@@H](C(=O)Nc2nccs2)c2ccccc2)C3)c1", "note": "[Compound I-88, (R)-N-(2-(dimethylamino)ethyl)-3-(3-oxo-2-(2-oxo-1-phenyl-2-(thiazol-2-ylamino)ethyl)isoindolin-5-yl)benzamide]", "Activity (% inhibition)": "C (a % inhibition of between about 25% to about 50%)"}]}]}
